In US5179113A, “Treatment of central nervous disorders with imidazole compounds” (E. I. Du Pont de Nemours and Company, priority 1991, dated 1993):
“Also recorded” adds a separate entry of the source. Where a name gives a salt, the structure may show the parent alone. Blank lines part the entries; values can stand above or below the molecule they belong to.

Legend:
[1] = test system: AII-1 receptors in the brain; test: Binding of AII antagonists to brain slices, AII-1 sites; details: clusters of AII-1 sites
[2] = test system: AII receptor subtype-2 (AII-2); details: rat adrenal cortex; cited from earlier work
[3] = test system: AII receptor subtype-1 (AII-1); details: rat adrenal cortex; cited from earlier work
[4] = test system: AII-2 receptors in the brain; test: Binding of AII antagonists to brain slices, AII-2 sites; details: majority of binding sites
[5] = test system: AII-1 receptor; test: AII receptor antagonism, subtype AII-1, as stated; details: stated in words, no data
[6] = test system: male Sprague-Dawley rats (renin-induced amnesia); test: Renin-disrupted passive avoidance retention; type: in vivo, rat; details: for effect on renin-induced amnesia (in words): co-administered with renin IVT
Method: Experimentally naive male Sprague-Dawley rats […] (Charles River Breeding Laboratories, Kingston, N.Y.), weighing between 175 to 200 gm were used. The animals were housed four per cage (45.0(L)×20.0(H)×26.0(W) cm) with free access to food and water. They were maintained on a 12 h light/dark cycle (lights on 600 h) and at a room temperature of 22°±1° C. with relative humidity of 50±10%. The experimental sessions were conducted in a two-compartment passive avoidance box. One compartment, made of clear plastic with a perforated clear plastic floor, measured 21(L)×24.5(H)×17(W) cm and was illuminated with a 60 watt incandescent light bulb placed 36 cm above the floor. The other compartment, made of black plastic, measured 30.5(L)×20.3(H)×21.5(W) cm with a floor made of 4 mm stainless steel rods spaced 1.2 cm apart. A grid floor shocker (Coulbourn Instruments) was connected to the steel rods and provided scrambled footshock. The two compartments were separated by a solenoid-operated slide door (Lafayette Instrument Co., Lafayette, Ind.). An electronic counter (Coulbourn Instruments), triggered by the opening or closing of the slide door, recorded acquisition and retention latencies (latencies were defined as the time it took an animal to enter the dark compartment). Passive avoidance training began by placing the rat into the clear compartment of the two-compartment passive avoidance box. Following a 10 sec delay, the slide door to the dark compartment was raised. Once the rat moved completely into the dark compartment (all four paws on the shock grid floor) the slide door was lowered, and after a 10 sec delay, a 1.0 mA shock was applied to the grid floor for three sec. A second three sec shock was delivered after an additional 10 sec delay. The rats were immediately removed from the dark compartment and returned to their home cage. A retention test was given 24 h later. It proceeded in the same manner as the training session except that no shock was applied to the grid floor when the rats were provided access to the dark compartment for a maximum of 300 sec. […] All drugs were administered IVT 60 minutes prior to acquisition training in a volume of 5 μl. Doses are expressed as the free base weight of each compound.

[7] = test system: eight arm radial maze performance in rats; details: 3 mg/kg IP; Usinger et al. 1988; cited from earlier work
[8] = test system: memory of previously learned tasks; details: EP 288,907; cited from earlier work
[9] = test system: retention of a passive avoidance (PA) response in rats; details: injected into dorsal neostriatum; Morgan and Routtenberg 1977; cited from earlier work
[10] = test system: release of ACh in entorhinal cortex from rat brain; details: in vitro; Barnes et al. 1989; cited from earlier work
[11] = test system: AII in cerebrospinal fluid (CSF); details: renin into lateral ventricle; AII increased from 40; Koller et al. 1975; cited from earlier work

sensitivity of AII-1 binding sites in brain [1]: DTT-sensitive
sensitivity of AII-2 binding sites in brain [4]: DTT-insensitive
Molecule: O[C@H](CS)[C@H](O)CS (racemic) [DTT, dithiothreitol]
sensitivity of AII-2 receptor to inactivation by DTT [2]: resistant to DTT inactivation
sensitivity of AII-1 receptor to inactivation by DTT [3]: particularly sensitive to inactivation

AII-1 receptor antagonism [5]: AII-1 receptor antagonists
Molecule: CCCc1nc(C(F)(F)F)c(C(=O)O)n1Cc1ccc(-c2ccccc2-c2nn[nH]n2)cc1 [Compound C, sodium salt of 2-n-propyl-1-[(2'-(1H-tetrazol-5-yl)biphenyl-4-yl)methyl]-4-trifluoromethylimidazole-5-carboxylic acid]
effect on renin-induced amnesia (in words) [6]: protected against the amnesia

AII-1 receptor antagonism [5]: AII-1 receptor antagonists
Molecule: CCCc1nc(C(F)(F)F)c(CO)n1Cc1ccc(-c2ccccc2-c2nn[nH]n2)cc1 [Compound D, sodium salt of 2-n-propyl-5-hydroxymethyl-1-[(2'-(1H-tetrazol-5-yl)biphenyl-4-yl)methyl]-4-trifluoromethylimidazole]
effect on renin-induced amnesia (in words) [6]: protected against the amnesia

sensitivity of AII-2 binding sites in brain [4]: EXP655-sensitive
Molecule: Cc1cc(Cn2cnc3c2CC(C(=O)O)N(C(=O)C(c2ccccc2)c2ccccc2)C3)ccc1N (stereo not drawn) [EXP655, 1-(4-amino-3-methylphenyl)methyl-5-diphenylacetyl-4,5,6,7-tetrahydro-1H-imidazo[4,5-c]pyridine-6-carboxylic acid]
effect on renin-induced amnesia (in words) [6]: much less effective in preventing the amnesia

Molecule: CCOC(=O)C(CCc1ccccc1)NC(C)C(=O)N1CC2(CC3CCC2CC3)CC1C(=O)O (stereo not drawn) [Hoe 288]
effect on muscarinic receptor blockade on performance [7]: partially antagonized the effects of muscarinic receptor blockade on performance

Molecule: NCCCC[C@H](OP(=O)(O)CCCCc1ccccc1)C(=O)N1CCC[C@H]1C(=O)O [SQ 29852]
effect on an anticholinergic effect on performance [8]: ameliorate, at least in part

Molecule: C[C@H](CS)C(=O)N1CCC[C@H]1C(=O)O [captopril]
effect on renin-induced amnesia (in words) [6]: prevented

Molecule: NC(=O)[C@@H]1CCCN1C(=O)[C@H](Cc1cnc[nH]1)NC(=O)[C@@H]1CCC(=O)N1 [thyrotropin releasing hormone]
effect on retention of PA response [9]: no effect

Molecule: AI: AI, compared with AII in ACh release (DRVYIHPFHL; Angiotensin-1; UniProt P01019 25-34, looked up)
effect on potassium-stimulated release of ACh [10]: not AI

Molecule: AII: Angiotensin-II, circulating hormone thought to act as a neuropeptide in the CNS (DRVYIHPF; Angiotensin-2; UniProt P01019 25-32, looked up)
effect on retention of PA response [9]: disruption in retention of a PA response
effect on basal ACh levels [10]: without effects on basal levels

Molecule: [1-sarcosine, 8-threonine]angiotensin-II
effect on AII-induced reduction of ACh release [10]: antagonized

Molecule: lysine-8-vasopressin
effect on retention of PA response [9]: no effect

B1: renin: Renin (Sigma Chemicals), a stimulator of endogenous AII biosynthesis (protein, UniProt P00797 67-406, looked up)
Renin: LTLGNTTSSVILTNYMDTQYYGEIGIGTPPQTFKVVFDTGSSNVWVPSSKCSRLYTACVYHKLFDASDSSSYKHNGTELTLRYSTGTVSGFLSQDIITVGGITVTQMFGEVTEMPALPFMLAEFDGVVGMGFIEQAIGRVTPIFDNIISQGVLKEDVFSFYYNRDSENSQSLGGQIVLGGSDPQHYEGNFHYINLIKTGVWQIQMKGVSVGSSTLLCEDGCLALVDTGASYISGSTSSIEKLMEALGAKKRLFDYVVKCNEGPTLPDISFHLGGKEYTLTSADYVFQESYSSKKLCTLAIHAMDIPPPTGPTWALGATFIRKFYTEFDRRNNRIGFALAR
AII in CSF after renin [11]: about 5000 fmol per mL
memory deficit / amnesia produced by renin (in words) ([6]; IVT, passive avoidance): produces a reliable memory deficit in rats; also recorded: dose-related amnesia in a PA task
